# Patent publication US12076307B2, “Compositions for prevention or treatment of acute radiation syndrome and other radiation exposure” (priority 2017, dated 2024)
# How the values were obtained:
# [1] = tested on: BALB/c mice, 6.11 Gy γ-radiation TBI; assay: Hematopoietic ARS (H-ARS) CBC time course, 6.11 Gy; format: in vivo, mouse
# Experimental: For the time course analysis of hematopoietic ARS (H-ARS), female mice were grouped 5 per treatment cohorts; γ-radiation only cohort (positive control) and γ-radiation with EC-18 250 mg/kg cohort. For the analysis of dose effect of EC-18 administration on H-ARS, mice were grouped 8 (5 males and 3 females) per treatment cohorts; γ-radiation only cohort (positive control), γ-radiation with EC-18 50 mg/kg cohort, γ-radiation with EC-18 100 mg/kg cohort, γ-radiation with EC-18 250 mg/kg cohort and γ-radiation with EC-18 100 mg/kg cohort. The whole blood was collected from the orbital sinuses using EDTA-free capillary tubes (Kimble Chase Life Science and Research Products LLC, FL, USA) and collection tubes containing K3E-K3EDTA (Greiner Bio-One International, Kremsmunster, Austria).
# The therapeutic effect of EC-18 administration on H-ARS was then evaluated. […] Groups of BALB/c mice (n=5, female for FIG. 32A through FIG. 32E and n=8, 5 male, 3 female for FIG. 32F through FIG. 32J) were exposed to 6.11Gy of γ-radiation and various doses of EC-18 were orally administered once daily to day 15, or remained untreated. FIGS. 32A through 32E show the time course of the white blood cell count (WBC; FIG. 32A), absolute Neutrophil count (ANC; FIG. 32B), absolute Lymphocyte count (ALC; FIG. 32C), platelet count (PLT; FIG. 32D) and red blood cell count (RBC; FIG. 32E) over 15 days, respectively. FIG. 32F through FIG. 32J show the dose effect of EC-18 administration on WBC (FIG. 32F), ANC (FIG. 32G), ALC (FIG. 32H), PLT (FIG. 32I) and BRC (FIG. 32J) on day 15, respectively. ns; not significant,* p<0.05, **p<0.01, *** p<0.005.
# [2] = In vitro metabolic stability / metabolite screening, human liver microsomes; format: in vitro ADME; settings: for Mean Peak Area in LC-RID: Human, N=2
# Experimental: [^14C]EC-18 or the positive control (7-ethoxycoumarin; 7-EC) reacted with microsomes prepared from hepatocytes of rats, dogs, monkeys, and humans, with or without cofactors, for 60 and 120 min. Then, the residual EC-18 concentration over time was measured by LC-RID ([^14C]EC-18) or LC-MS/MS (7-EC) (FIG. 63 and FIG. 64).
# Each test system was designed to examine phase 1 metabolic reaction (test system A), phase 2 metabolic reaction (test system B), and non-enzymatic degradation.
# The LC-RID chromatographic profiles of radioactive metabolites produced in the 2-hr incubation reaction mixtures of the same test systems A, B, and C used to assess the metabolic and non-metabolic elimination rates of EC-18 were compared to the LC-UV chromatographic profiles of the synthetic reference material. […] The relative radioactivity of EC-18 accounted for 42-67% of total radioactivity. […]. The peaks of M4 and M6 were determined in monkeys and humans. M1 was abundantly detected in all species, but it was assumed to be a peak of early elution. The LC-UV chromatograms of reaction mixtures in each test system (FIGS. 65A-65C) and the relative radioactivity of the screened metabolites are shown in Table 25.
# [3] = tested on: C57BL/6J mice, 680 cGy TBI; assay: 30-day survival in C57BL/6J mice after LD70/30 (680 cGy) TBI; format: in vivo, mouse; settings: for Dead/Moribund, Females (percent) / Dead/Moribund, Males (percent): N=24; for Dead/Moribund, All Animals (percent): N=48
# Experimental: The objective of this study was to evaluate the 30-day survival benefit of EC-18 in male and female C57BL/6J mice when administered by daily oral gavage at doses ranging from 100-375 mg/kg/day, for 30 consecutive days beginning approximately 24 hrs after a single LD70/30 dose (680 cGy) of TBI. The study had 4 dose groups, each with 24 animals of each sex, Group 1 animals were administered sterile PBS, Groups 2, 3, and 4 were administered EC-18 at 100, 250, and 375 mg/kg/day, respectively. Dose volumes were determined using the most recently recorded body weight. Survival was monitored for 30 days post irradiation, with early removal criterion used to determine morbidity. Clinical observations were recorded daily before administration of vehicle or test article. […] Body weights were recorded minimally 3 times per week, daily for animals with weight loss of ≥15%, or twice daily for animals with ≥20% weight loss.
# [4] = EC-18 250 mg/kg daily, n=5 female
smiles,measurement,setting,value
"CCCCC/C=C\C/C=C\CCCCCCCC(=O)OC(COC(C)=O)COC(=O)CCCCCCCCCCCCCCC (stereo not shown) [EC-18, 1-palmitoyl-2-linoleoyl-3-acetylglycerol]",duration of severe neutropenia,[1]; [4],7.2 ± 1.79 days
same,mean first day of neutropenia (ANC<500 cells/μL),[1]; [4],2.2 ± 1.09 days
same,mean nadir of ANC,[1]; [4],20.0±10.00 cells/μL
same,reduction of PLT and RBC induced by a single TBI,[1]; oral once daily to day 15,attenuated
same,"γ-radiation-induced depletion of WBC, ANC and ALC",[1]; oral once daily to day 15,significantly attenuated
same,elimination rate,"[2]; 1-hr reaction, test system A (Phase 1 metabolic reaction)",21.2%
same,elimination rate,"[2]; 1-hr reaction, test system B (Phase 2 metabolic reaction)",25.5%
same,elimination rate,"[2]; 1-hr reaction, test system C (non-enzymatic degradation)",26.5%
same,elimination rate,"[2]; 2-hr reaction, test system A",32.8%
same,elimination rate,"[2]; 2-hr reaction, test system B",35.4%
same,elimination rate,"[2]; 2-hr reaction, test system C",32.6%
same,Mean Peak Area in LC-RID,"[2]; A (NADPH added), [14C]EC-18 2 hrs",67.2%
same,Mean Peak Area in LC-RID,"[2]; B (NADPH, PAPS, UDPGA added), 2 hrs",64.6%
same,Mean Peak Area in LC-RID,"[2]; C (no cofactor added), 2 hrs",67.4%
same,combined sex survival,"[3]; Group 2, 100 mg/kg/day",21%
same,"increased survival above vehicle control, females","[3]; Group 2, 100 mg/kg/day",29%
same,"survival, males",[3]; Group 2-4 (100-375 mg/kg/day),0-8%
same,combined sex survival,"[3]; Group 3, 250 mg/kg/day",25%
same,"increased survival above vehicle control, females","[3]; Group 3, 250 mg/kg/day",46%
same,combined sex survival,"[3]; Group 4, 375 mg/kg/day",29%
same,"increased survival above vehicle control, females","[3]; Group 4, 375 mg/kg/day",46%
same,"Dead/Moribund, Females (percent)",[3]; Grp 2: 100 mg/kg,16 (67%)
same,"Dead/Moribund, Males (percent)",[3]; Grp 2: 100 mg/kg,22 (92%)
same,"Dead/Moribund, All Animals (percent)",[3]; Grp 2: 100 mg/kg,38 (79%)
same,"Dead/Moribund, Females (percent)",[3]; Grp 3: 250 mg/kg,12 (50%)
same,"Dead/Moribund, Males (percent)",[3]; Grp 3: 250 mg/kg,24 (100%)
same,"Dead/Moribund, All Animals (percent)",[3]; Grp 3: 250 mg/kg,36 (75%)
same,"Dead/Moribund, Females (percent)",[3]; Grp 4: 375 mg/kg,12 (50%)
same,"Dead/Moribund, Males (percent)",[3]; Grp 4: 375 mg/kg,22 (92%)
same,"Dead/Moribund, All Animals (percent)",[3]; Grp 4: 375 mg/kg,34 (71%)
same,mean body weights vs vehicle,[3]; any study day,no statistically significant differences
